# Measurements taken from patent US10889553B2, “Asymmetric triazole benzamide derivatives and the compositions and methods of treatment regarding the same” (NysnoBio Ireland DAC, priority 2017, dated 2021).
# Assays:
# Experiment in all cases: Cancer cell proliferation assay (acid phosphatase)
# Assay type in all cases: cell-based
# TOV-21G (ovarian) = conditions: Homo sapiens, TOV21G; Table 6E; read-out: Proliferation IC50 (nM) Ovarian TOV21G
# Procedure, shortened: (§1)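 Growth inhibition is expressed as a percentage of DMSO-treated control cells, using absorbance at 405 nm corrected at 620 nm after acid phosphatase conversion of p-nitrophenol phosphate. Compound exposure lasts 72 hrs at 37° C. following overnight attachment.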
# TOV-112D (ovarian) = conditions: Homo sapiens, TOV112D; Table 6E; read-out: Proliferation IC50 (nM) Ovarian TOV112D
# Procedure, shortened: as §1
# JEKO-1 (lymophoma) = conditions: Homo sapiens, Table 6E, read-out: Proliferation IC50 (nM) Mantle Cell Jeko-1
# Procedure, shortened: as §1
# Ovarian (A2780) = conditions: Homo sapiens, Table 6E
# Procedure, shortened: as §1
# Ovarian (OAW42) = conditions: Homo sapiens, OAW-42; Table 6E
# Procedure, shortened: as §1
# Mantle Cell Mino = conditions: Homo sapiens, Table 6E
# Procedure, shortened: as §1
# HCT-116 (colon) = conditions: Homo sapiens, HCT-116; Table 6E; read-out: Proliferation IC50 (nM) CRC HCT-116
# Procedure, shortened: as §1
smiles,measurement,setting,value
"Cc1ccccc1C(=O)Nc1nc(NC(=O)c2ccccc2C)n(-c2ccccc2)n1 [Compound F, 2-methyl-N-[5-[(2-methylbenzoyl)amino]-1-phenyl-1,2,4-triazol-3-yl]benzamide]",IC50,TOV-21G (ovarian),1500 nM
same,IC50,TOV-112D (ovarian),850 nM
same,IC50,JEKO-1 (lymophoma),> 2500 nM
same,IC50,Ovarian (A2780),1300 nM
same,IC50,Ovarian (OAW42),> 2500 nM
same,IC50,Mantle Cell Mino,884 nM
same,IC50,HCT-116 (colon),1300 nM
